Patent US20230150974A1 (Foghorn Therapeutics Inc., priority 2020, published 2023)

What was measured:
HiBit-BRG1 = target: T1, HiBit-BRG1 (Homo sapiens, UniProt P51532); assay: HiBit-BRG1 cell-based degradation assay (Nano-Glo HiBiT Lytic Detection); settings: HeLa cells expressing HiBit-BRG1 and LgBit, 24 h; for DC50: read-out: BRG1 HiBit Degradation IC50; for Dmax: read-out: BRG1 HiBit Degradation Maximum (%)
T1 construct: expressed in transfected cells
Outline: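 Percent degradation derived from lytic HiBiT signal, normalized to DMSO-treated cells and to cells given 2 μM of a known BRM/BRG1 degrader. The HeLa line stably expressed HiBit-BRG1 and LgBit; treatment lasted 24 h at 5000 cells per well.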

HiBiT-BRM = target: T2, HiBiT-BRM (Homo sapiens, UniProt P51531); assay: HiBiT-BRM cell-based degradation assay (Nano-Glo HiBiT Lytic Detection); settings: HeLa cells expressing HiBiT-BRM, 24 h; for DC50: read-out: BRM HiBit Degradation IC50
T2 construct: expressed in transfected cells
T2 sequence (P51531 whole entry): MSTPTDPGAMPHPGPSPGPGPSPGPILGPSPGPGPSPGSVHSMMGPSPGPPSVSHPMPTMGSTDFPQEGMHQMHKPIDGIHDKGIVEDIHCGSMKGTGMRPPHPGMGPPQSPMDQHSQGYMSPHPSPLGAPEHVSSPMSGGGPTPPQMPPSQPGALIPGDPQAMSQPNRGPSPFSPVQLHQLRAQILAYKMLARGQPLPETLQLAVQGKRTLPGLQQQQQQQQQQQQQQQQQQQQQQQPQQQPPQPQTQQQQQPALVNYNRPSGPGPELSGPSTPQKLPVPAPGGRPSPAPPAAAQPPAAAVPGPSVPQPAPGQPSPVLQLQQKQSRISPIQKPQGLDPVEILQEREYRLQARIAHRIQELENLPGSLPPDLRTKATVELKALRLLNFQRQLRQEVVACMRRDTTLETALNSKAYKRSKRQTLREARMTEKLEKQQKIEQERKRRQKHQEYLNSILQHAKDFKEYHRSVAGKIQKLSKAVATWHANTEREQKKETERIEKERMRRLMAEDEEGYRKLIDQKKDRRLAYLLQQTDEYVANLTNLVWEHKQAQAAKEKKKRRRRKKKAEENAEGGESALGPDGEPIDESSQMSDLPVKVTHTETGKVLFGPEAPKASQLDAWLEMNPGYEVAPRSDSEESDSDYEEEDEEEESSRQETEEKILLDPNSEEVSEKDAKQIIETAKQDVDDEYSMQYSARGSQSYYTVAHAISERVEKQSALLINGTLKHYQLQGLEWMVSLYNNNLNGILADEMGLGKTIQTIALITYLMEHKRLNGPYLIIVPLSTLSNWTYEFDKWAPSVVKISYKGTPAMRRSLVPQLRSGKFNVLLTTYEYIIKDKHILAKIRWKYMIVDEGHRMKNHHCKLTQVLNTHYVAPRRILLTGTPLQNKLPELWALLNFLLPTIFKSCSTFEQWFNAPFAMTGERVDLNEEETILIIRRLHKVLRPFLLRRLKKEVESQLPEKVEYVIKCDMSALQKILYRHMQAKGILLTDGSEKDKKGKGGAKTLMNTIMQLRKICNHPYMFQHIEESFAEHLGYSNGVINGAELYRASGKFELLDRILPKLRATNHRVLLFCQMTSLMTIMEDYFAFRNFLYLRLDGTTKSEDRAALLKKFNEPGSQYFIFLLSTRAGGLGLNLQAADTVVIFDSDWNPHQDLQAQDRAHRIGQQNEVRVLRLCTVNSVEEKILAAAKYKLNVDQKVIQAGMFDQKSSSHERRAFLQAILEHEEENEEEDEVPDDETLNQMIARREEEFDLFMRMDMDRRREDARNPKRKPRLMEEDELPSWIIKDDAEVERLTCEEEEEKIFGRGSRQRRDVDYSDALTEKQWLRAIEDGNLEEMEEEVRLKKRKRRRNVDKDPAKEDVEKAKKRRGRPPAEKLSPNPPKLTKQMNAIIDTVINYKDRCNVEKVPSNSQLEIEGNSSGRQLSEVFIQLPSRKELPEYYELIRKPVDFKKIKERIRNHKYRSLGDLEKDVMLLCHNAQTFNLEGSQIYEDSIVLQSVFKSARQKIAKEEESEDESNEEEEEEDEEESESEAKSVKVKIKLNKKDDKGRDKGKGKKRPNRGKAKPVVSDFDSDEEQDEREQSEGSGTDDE
Outline: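 Luminescence from HiBiT–LgBiT complementation in lysates of a stable HiBiT-BRM HeLa line measured after 24 h compound exposure. Degradation expressed as percent relative to DMSO-treated cells and cells given 2 μM of a known BRM/BRG1 degrader.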

T1 sequence (P51532 whole entry): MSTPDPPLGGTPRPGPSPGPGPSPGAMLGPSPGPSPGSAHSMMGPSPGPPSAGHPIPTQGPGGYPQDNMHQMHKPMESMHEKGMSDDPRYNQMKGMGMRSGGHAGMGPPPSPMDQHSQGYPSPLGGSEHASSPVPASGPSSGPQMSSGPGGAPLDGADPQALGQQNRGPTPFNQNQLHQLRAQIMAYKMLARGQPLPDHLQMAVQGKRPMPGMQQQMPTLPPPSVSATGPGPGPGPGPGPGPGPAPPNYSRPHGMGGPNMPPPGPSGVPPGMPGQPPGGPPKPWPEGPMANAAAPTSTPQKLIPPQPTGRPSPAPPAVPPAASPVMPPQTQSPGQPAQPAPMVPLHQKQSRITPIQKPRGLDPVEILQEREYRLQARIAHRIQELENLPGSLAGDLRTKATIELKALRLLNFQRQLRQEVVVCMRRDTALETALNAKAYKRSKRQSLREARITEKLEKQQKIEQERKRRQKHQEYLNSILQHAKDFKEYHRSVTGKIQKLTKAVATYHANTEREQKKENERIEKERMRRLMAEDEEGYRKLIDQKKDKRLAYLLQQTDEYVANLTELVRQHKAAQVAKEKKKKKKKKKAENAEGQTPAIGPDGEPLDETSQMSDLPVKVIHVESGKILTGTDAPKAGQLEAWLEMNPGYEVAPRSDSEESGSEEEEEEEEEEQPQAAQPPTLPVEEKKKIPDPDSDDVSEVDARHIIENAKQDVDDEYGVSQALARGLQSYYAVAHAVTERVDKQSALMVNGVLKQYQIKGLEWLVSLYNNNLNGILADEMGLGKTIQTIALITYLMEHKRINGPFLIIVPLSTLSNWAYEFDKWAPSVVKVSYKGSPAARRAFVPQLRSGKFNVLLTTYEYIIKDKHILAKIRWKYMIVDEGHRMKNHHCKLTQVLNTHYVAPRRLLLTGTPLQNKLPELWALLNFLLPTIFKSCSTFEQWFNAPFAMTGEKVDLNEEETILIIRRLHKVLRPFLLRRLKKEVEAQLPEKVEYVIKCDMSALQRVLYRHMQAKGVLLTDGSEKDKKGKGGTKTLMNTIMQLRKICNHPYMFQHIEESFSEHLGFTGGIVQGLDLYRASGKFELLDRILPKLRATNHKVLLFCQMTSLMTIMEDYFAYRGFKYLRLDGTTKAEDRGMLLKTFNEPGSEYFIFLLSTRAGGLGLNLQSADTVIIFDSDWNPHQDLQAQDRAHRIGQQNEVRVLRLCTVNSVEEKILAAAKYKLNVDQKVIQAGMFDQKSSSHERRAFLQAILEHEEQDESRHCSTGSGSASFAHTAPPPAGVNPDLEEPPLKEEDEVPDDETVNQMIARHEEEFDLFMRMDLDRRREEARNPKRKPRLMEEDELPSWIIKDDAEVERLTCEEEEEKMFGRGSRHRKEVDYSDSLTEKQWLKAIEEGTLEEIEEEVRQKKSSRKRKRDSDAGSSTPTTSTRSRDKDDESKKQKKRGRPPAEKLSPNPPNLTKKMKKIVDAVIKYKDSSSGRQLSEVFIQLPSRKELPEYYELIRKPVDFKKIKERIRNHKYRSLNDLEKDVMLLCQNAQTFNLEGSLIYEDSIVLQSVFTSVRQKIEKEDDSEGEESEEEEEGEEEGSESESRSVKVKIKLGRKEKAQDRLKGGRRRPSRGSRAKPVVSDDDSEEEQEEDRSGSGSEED

| Compound | DC50 (HiBit-BRG1) | Dmax (HiBit-BRG1) | BRM HiBit Degradation Maximum (%) (HiBiT-BRM) | DC50 (HiBiT-BRM) |
| --- | --- | --- | --- | --- |
| Cc1nc2cccc(NCCCCCCNC(=O)c3ccc(CCOc4cc(-c5ccccc5O)nnc4N)cc3)c2c(=O)n1C1CCC(=O)NC1=O (stereo not shown) [Compound 52, 4-(2-[[3-amino-6-(2-hydroxyphenyl)pyridazin-4-yl]oxy]ethyl)-N-(6-[[3-(2,6-dioxopiperidin-3-yl)-2-methyl-4-oxoquinazolin-5-yl]amino]hexyl)benzamide] | > 1000 nM | < 50% | C (“C” indicates maximum degradation <50%) | > 1000 nM |
| Nc1nnc(-c2ccccc2O)cc1OCCc1ccc(C(=O)NCCOCCOCCNc2cccc3c2CN(C2CCC(=O)NC2=O)C3=O)cc1 (stereo not shown) [Compound 54, 4-(2-[[3-amino-6-(2-hydroxyphenyl)pyridazin-4-yl]oxy]ethyl)-N-[2-[2-(2-[[2-(2,6-dioxopiperidin-3-yl)-1-oxo-3H-isoindol-4-yl]amino]ethoxy)ethoxy]ethyl]benzamide] | > 1000 nM | < 50% | C (“C” indicates maximum degradation <50%) | > 1000 nM |
| Nc1nnc(-c2ccccc2O)cc1OCCc1ccc(C(=O)NCCS(=O)(=O)CCNc2cccc3c2C(=O)N(C2CCC(=O)NC2=O)C3=O)cc1 (stereo not shown) [Compound 55, 4-(2-[[3-amino-6-(2-hydroxyphenyl)pyridazin-4-yl]oxy]ethyl)-N-[2-(2-[[2-(2,6-dioxopiperidin-3-yl)-1,3-dioxoisoindol-4-yl]amino]ethanesulfonyl)ethyl]benzamide] | > 1000 nM | < 50% | C (“C” indicates maximum degradation <50%) | > 1000 nM |
| Nc1nnc(-c2ccccc2O)cc1OCCc1ccc(C(=O)NCCCCCCCCNc2cccc3c2CN(C2CCC(=O)NC2=O)C3=O)cc1 (stereo not shown) [Compound 56] | > 1000 nM | < 50% | C (“C” indicates maximum degradation <50%) | > 1000 nM |
| Cc1ncsc1-c1ccc(CNC(=O)[C@@H]2C[C@@H](O)CN2C(=O)[C@@H](NC(=O)CCCCCCCNC(=O)c2ccc(CCOc3cc(-c4ccccc4O)nnc3N)cc2)C(C)(C)C)cc1 [Compound 57, (2S,4R)-1-[(2S)-2-(8-[[4-(2-[[3-amino-6-(2-hydroxyphenyl)pyridazin-4-yl]oxy]ethyl)phenyl]formamido]octanamido)-3,3-dimethylbutanoyl]-4-hydroxy-N-[[4-(4-methyl-1,3-thiazol-5-yl)phenyl]methyl]pyrrolidine-2-carboxamide] | > 1000 nM | < 50% | B (“B” indicates maximum degradation ≥50%) | > 100 nM |
| CN(CCNC(=O)COc1cccc2c1C(=O)N(C1CCC(=O)NC1=O)C2=O)CCNC(=O)c1ccc(CCOc2cc(-c3ccccc3O)nnc2N)cc1 (stereo not shown) [Compound 58, N-[2-[(2-[[4-(2-[[3-amino-6-(2-hydroxyphenyl)pyridazin-4-yl]oxy]ethyl)phenyl]formamido]ethyl)(methyl)amino]ethyl]-2-[[2-(2,6-dioxopiperidin-3-yl)-1,3-dioxoisoindol-4-yl]oxy]acetamide] | > 1000 nM | < 50% | C (“C” indicates maximum degradation <50%) | > 1000 nM |
| CN(CCNC(=O)c1ccc(CCOc2cc(-c3ccccc3O)nnc2N)cc1)CCNc1cccc2c1C(=O)N(C1CCC(=O)NC1=O)C2=O (stereo not shown) [Compound 61, 4-(2-[[3-amino-6-(2-hydroxyphenyl)pyridazin-4-yl]oxy]ethyl)-N-[2-[(2-[[2-(2,6-dioxopiperidin-3-yl)-1,3-dioxoisoindol-4-yl]amino]ethyl)(methyl)amino]ethyl]benzamide] | > 1000 nM | < 50% | B (“B” indicates maximum degradation ≥50%) | > 100 nM |
| Nc1nnc(-c2ccccc2O)cc1OCCc1ccc(CNC(=O)COc2cccc3c2C(=O)N(C2CCC(=O)NC2=O)C3=O)cc1 (stereo not shown) [Compound 62, N-[[4-(2-[[3-amino-6-(2-hydroxyphenyl)pyridazin-4-yl]oxy]ethyl)phenyl]methyl]-2-[[2-(2,6-dioxopiperidin-3-yl)-1,3-dioxoisoindol-4-yl]oxy]acetamide] | > 100 nM | > 50% | C (“C” indicates maximum degradation <50%) | > 1000 nM |
| Nc1nnc(-c2ccccc2O)cc1OCCc1ccc(CNC(=O)CCCCCOc2cccc3c2C(=O)N(C2CCC(=O)NC2=O)C3=O)cc1 (stereo not shown) [Compound 63, N-[[4-(2-[[3-amino-6-(2-hydroxyphenyl)pyridazin-4-yl]oxy]ethyl)phenyl]methyl]-6-[[2-(2,6-dioxopiperidin-3-yl)-1,3-dioxoisoindol-4-yl]oxy]hexanamide] | > 1000 nM | < 50% | B (“B” indicates maximum degradation ≥50%) | > 100 nM |
| Nc1nnc(-c2ccccc2O)cc1OCCc1ccc(C(=O)NCCCCCCCCNc2ccc3c(c2)C(=O)N(C2CCC(=O)NC2=O)C3=O)cc1 (stereo not shown) [Compound 64, 4-(2-[[3-amino-6-(2-hydroxyphenyl)pyridazin-4-yl]oxy]ethyl)-N-(8-[[2-(2,6-dioxopiperidin-3-yl)-1,3-dioxoisoindol-5-yl]amino]octyl)benzamide] | > 1000 nM | < 50% | C (“C” indicates maximum degradation <50%) | > 1000 nM |
| Nc1nnc(-c2ccccc2O)cc1OCCc1ccc(CNC(=O)CCCOc2cccc3c2C(=O)N(C2CCC(=O)NC2=O)C3=O)cc1 (stereo not shown) [Compound 65, N-[[4-(2-[[3-amino-6-(2-hydroxyphenyl)pyridazin-4-yl]oxy]ethyl)phenyl]methyl]-4-[[2-(2,6-dioxopiperidin-3-yl)-1,3-dioxoisoindol-4-yl]oxy]butanamide] | > 1000 nM | < 50% | C (“C” indicates maximum degradation <50%) | > 1000 nM |
| Nc1nnc(-c2ccccc2O)cc1OCCc1ccc(CNC(=O)CCCCCCCCCCNc2ccc3c(c2)C(=O)N(C2CCC(=O)NC2=O)C3=O)cc1 (stereo not shown) [Compound 66] | > 1000 nM | < 50% | C (“C” indicates maximum degradation <50%) | > 1000 nM |
| Nc1nnc(-c2ccccc2O)cc1OCCc1ccc(CNC(=O)CCCCOc2cccc3c2C(=O)N(C2CCC(=O)NC2=O)C3=O)cc1 (stereo not shown) [Compound 67, N-[[4-(2-[[3-amino-6-(2-hydroxyphenyl)pyridazin-4-yl]oxy]ethyl)phenyl]methyl]-5-[[2-(2,6-dioxopiperidin-3-yl)-1,3-dioxoisoindol-4-yl]oxy]pentanamide] | > 1000 nM | < 50% | A (“A” indicates maximum degradation ≥75%) | > 100 nM |
| Nc1nnc(-c2ccccc2O)cc1OCCc1ccc(CNC(=O)CCCCCCCOc2cccc3c2C(=O)N(C2CCC(=O)NC2=O)C3=O)cc1 (stereo not shown) [Compound 69, N-[[4-(2-[[3-amino-6-(2-hydroxyphenyl)pyridazin-4-yl]oxy]ethyl)phenyl]methyl]-8-[[2-(2,6-dioxopiperidin-3-yl)-1,3-dioxoisoindol-4-yl]oxy]octanamide] | > 1000 nM | < 50% | C (“C” indicates maximum degradation <50%) | > 1000 nM |
| Nc1nnc(-c2ccccc2O)cc1OCCc1ccc(CNC(=O)CCOCCOCCNc2ccc3c(c2)C(=O)N(C2CCC(=O)NC2=O)C3=O)cc1 (stereo not shown) [Compound 70, N-[[4-(2-[[3-amino-6-(2-hydroxyphenyl)pyridazin-4-yl]oxy]ethyl)phenyl]methyl]-3-[2-(2-[[2-(2,6-dioxopiperidin-3-yl)-1,3-dioxoisoindol-5-yl]amino]ethoxy)ethoxy]propanamide] | > 1000 nM | < 50% | C (“C” indicates maximum degradation <50%) | > 1000 nM |
| Nc1nnc(-c2ccccc2O)cc1OCCc1ccc(CNC(=O)CCCCCCCCNc2cccc3c2C(=O)N(C2CCC(=O)NC2=O)C3=O)cc1 (stereo not shown) [Compound 71, N-[[4-(2-[[3-amino-6-(2-hydroxyphenyl)pyridazin-4-yl]oxy]ethyl)phenyl]methyl]-9-[[2-(2,6-dioxopiperidin-3-yl)-1,3-dioxoisoindol-4-yl]amino]nonanamide] | > 1000 nM | < 50% | C (“C” indicates maximum degradation <50%) | > 1000 nM |
| Nc1nnc(-c2ccccc2O)cc1OCCc1ccc(CNC(=O)CCCCCCCCCCNc2cccc3c2C(=O)N(C2CCC(=O)NC2=O)C3=O)cc1 (stereo not shown) [Compound 72] | > 1000 nM | < 50% | C (“C” indicates maximum degradation <50%) | > 1000 nM |
| Nc1nnc(-c2ccccc2O)cc1OCCc1ccc(CNC(=O)CCCCCCCCNc2ccc3c(c2)C(=O)N(C2CCC(=O)NC2=O)C3=O)cc1 (stereo not shown) [Compound 73, N-(4-(2-((3-amino-6-(2-hydroxyphenyl)pyridazin-4-yl)oxy)ethyl)benzyl)-9-((2-(2,6-dioxopiperidin-3-yl)-1,3-dioxoisoindolin-5-yl)amino)nonanamide] | > 1000 nM | < 50% | C (“C” indicates maximum degradation <50%) | > 1000 nM |
| Nc1nnc(-c2ccccc2O)cc1OCCc1ccc(CNC(=O)CCOCCOCCNc2cccc3c2C(=O)N(C2CCC(=O)NC2=O)C3=O)cc1 (stereo not shown) [Compound 74, N-(4-(2-((3-amino-6-(2-hydroxyphenyl)pyridazin-4-yl)oxy)ethyl)benzyl)-3-(2-(2-((2-(2,6-dioxopiperidin-3-yl)-1,3-dioxoisoindolin-4-yl)amino)ethoxy)ethoxy)propanamide] | > 1000 nM | < 50% | C (“C” indicates maximum degradation <50%) | > 1000 nM |
